Assay type in all cases: in vivo
Data set [1] deals with Corn Planthopper (Peregrinus maidis (Ashmead)). Nature of the data set: Test B: control of Corn Planthopper on sprayed corn plant. Particulars: 144 h, nymphs, 6 days; for mortality at 250 ppm: sprayed at 250 ppm; for mortality at 50 ppm: sprayed at 50 ppm; for mortality at 10 ppm: sprayed at 10 ppm. The procedure: (§1) Test compounds were formulated using a solution containing 10% acetone, 90% water and 300 ppm Activator 90@ non-ionic surfactant (Loveland Products, Loveland, Colorado, USA). The formulated compounds were applied in 1 mL of liquid through an atomized nozzle positioned 1.27 cm (0.5 inches) above the top of each test unit. Test compounds were sprayed at the rates indicated, and each test was replicated three times.
For evaluating control of Corn Planthopper (Peregrinus maidis (Ashmead)) through contact and/or systemic means, the test unit consisted of a small open container with a 3-4-day-old corn (maize) plant inside. White sand was added to the top of the soil prior to application of the test compound.
Test compounds were formulated and sprayed at 250, 50 and 10 ppm. After spraying of the formulated test compound, the test units were allowed to dry for 1 h before they were post-infested with ˜15-20 nymphs (18-to-21-day-old). A black, screened cap was placed on the top of each test unit, and the test units were held for 6 days in a growth chamber at 22-24° C. and 50-70% relative humidity. Each test unit was then visually assessed for insect mortality.

Data set [2] concerns Green Peach Aphid (Myzus persicae (Sulzer)). Nature of the data set: Test D: control of Green Peach Aphid on sprayed radish plant. Particulars: 144 h, pre-infested, 6 days; for mortality at 250 ppm: sprayed at 250 ppm; for mortality at 50 ppm: sprayed at 50 ppm. The procedure: as §1
For evaluating control of Green Peach Aphid (Myzus persicae (Sulzer)) through contact and/or systemic means, the test unit consisted of a small open container with a 12-15-day-old radish plant inside. Prior to compound application, each test unit was pre-infested by placing on a leaf of the test plant 30-40 aphids on a piece of leaf excised from a culture plant (cut-leaf method). The aphids moved onto the test plant as the leaf piece desiccated. After pre-infestation, the soil of the test unit was covered with a layer of sand.
Test compounds were formulated and sprayed at 250 and 50 ppm. After spraying of the formulated test compound, each test unit was allowed to dry for 1 hour and then a black, screened cap was placed on top. The test units were held for 6 days in a growth chamber at 19-21° C. and 50-70% relative humidity. Each test unit was then visually assessed for insect mortality.

Data set [3] deals with cotton melon aphid (Aphis gossypii (Glover)). Kind of data set: Test E: control of cotton melon aphid on sprayed okra plant. The following applies: 144 h, pre-infested, 6 days; for mortality at 50 ppm: sprayed at 50 ppm; for mortality at 250 ppm: sprayed at 250 ppm; for mortality at 2 ppm: sprayed at 2 ppm. How it is done: as §1
For evaluating control of cotton melon aphid (Aphis gossypii (Glover)) through contact and/or systemic means, the test unit consisted of a small open container with a 5-day-old okra plant inside. This was pre-infested with 30-40 insects on a piece of leaf according to the cut-leaf method, and the soil of the test unit was covered with a layer of sand.
Test compounds were formulated and sprayed at 250, 50, 10 and 2 ppm. After spraying, the test units were maintained in a growth chamber for 6 days at 19° C. and 70% relative humidity. Each test unit was then visually assessed for insect mortality.

In data set [4] the test system is silverleaf whitefly (Bemisia argentifolii (Bellows and Perring)). Nature of the data set: Test F: control of silverleaf whitefly on sprayed soybean plant. The following applies: 288 h, pre-infested (oviposition), 12 days; for mortality at 50 ppm: sprayed at 50 ppm; for mortality at 250 ppm: sprayed at 250 ppm. How it is done: as §1
For evaluating control of silverleaf whitefly (Bemisia argentifolii (Bellows and Perring)) through contact and/or systemic means, each test unit consisted of a small open container with a 5-7 day old soybean plant inside. This was pre-infested by placing test units into cages containing adult whiteflies so that oviposition on the leaves could occur. The adults were removed from the plants with an air-blast nozzle, and the test units were capped. The test units were then stored 2 to 3 days before spraying.
Test compounds were formulated and sprayed at 250 and 50 ppm. After spraying, the test units were maintained in a growth chamber for 12 days at 23° C. and 70% relative humidity. Each test unit was then visually assessed for insect mortality.

Data set [5] has as its system Potato Leafhopper (Empoasca fabae (Harris)). Nature of the data set: Test C: control of Potato Leafhopper on sprayed bean plant. Particulars: 144 h, adults, 6 days; for mortality at 250 ppm: sprayed at 250 ppm. How it is done:
as §1
For evaluating control of Potato Leafhopper (Empoasca fabae (Harris)) through contact and/or systemic means, the test unit consisted of a small open container with a 5-6-day-old bean plant inside. White sand was added to the top of the soil, and one of the primary leaves was excised prior to application of the test compound.
Test compounds were formulated and sprayed at 250 and 50 ppm. After spraying of the formulated test compound, the test units were allowed to dry for 1 hour before they were post-infested with 5 potato leafhoppers (18-to-21-day-old adults). A black, screened cap was placed on the top of the test unit, and the test units were held for 6 days in a growth chamber at 20° C. and 70% relative humidity. Each test unit was then visually assessed for insect mortality.

The test system of data set [6] is Neotropical Brown Stink Bug (Euschistus heros (Fab)). Kind of data set: Test H: control of Neotropical Brown Stink Bug on sprayed green bean pieces. Particulars: sprayed at 250 ppm; 3rd instar nymphs; 5 days. The procedure:
as §1
For evaluating control of Neotropical Brown Stink Bug (Euschistus heros (Fab)) through contact and/or systemic means, the test unit consisted of a petri dish with two, ˜2 cm pieces of green bean inside.
Test compounds were formulated and sprayed at 250, 50 and 10 ppm. After spraying of the formulated test compound, the test units were allowed to dry for 1 h before they were post-infested with 10 3rd instar nymphs. A fine mesh screen was secured to the petri dish, the test units were held for 5 days in a growth chamber at 28° C. and 65% relative humidity. Each test unit was then visually assessed for insect mortality after five days.

On to `CCC#CCn1nnc(-c2ccc(Br)c(Cl)c2)n1` [Compound 164, 5-(4-Bromo-3-chlorophenyl)-2-(2-pentyn-1-yl)-2H-tetrazole], for which the mortality at 250 ppm in data set [1] and in data set [2] was at least 80% throughout. Moreover, the mortality at 50 ppm in data set [3] was at least 80%; in data set [4], at least 50%.

Take `CCC#CCn1ncc(-c2ccc(C(F)(F)F)cc2)n1` [Compound 103, 2-(2-Pentyn-1-yl)-4-[4-(trifluoromethyl)phenyl]-2H-1,2,3-triazole]: the mortality at 50 ppm in data set [1] and in data set [3] was at least 80% in each case. Besides, the mortality at 250 ppm was at least 80% in data set [5], at least 80% in data set [2] and at least 50% in data set [4].

As to `CCC#CCn1ncc(-c2cncc(F)c2)n1` [Compound 155], the mortality at 50 ppm in data set [1] and in data set [3] was at least 80% in each case. Further, the mortality at 250 ppm in data set [5] and in data set [2] was at least 80% in each case.

As to `CCC#CCn1ncc(-c2ccc(Cl)cn2)n1` [Compound 141], the mortality at 250 ppm in data set [2] and in data set [3] was at least 80% in each case. Also, the mortality at 50 ppm in data set [4] is at least 50%.

In turn, `CCC#CCn1nnc(-c2ccc(C(F)(F)F)c(Br)c2)n1` [Compound 325, 5-[3-Bromo-4-(trifluoromethyl)phenyl]-2-(2-pentyn-1-yl)-2H-tetrazole] gave a mortality at 250 ppm in data set [1] of at least 80%. Moreover, the mortality at 50 ppm is at least 80% in data set [2], at least 80% in data set [3] and at least 50% in data set [4].

As to `CC(C)C#CCn1ncc(-c2ccc(C(F)(F)F)cc2)n1` [Compound 139], the mortality at 250 ppm in data set [1], in data set [5] and in data set [3] was at least 80% each time.

Take `CCC#CCn1cc(-c2ccc(C)cc2)nn1` [Compound 18]: in data set [6], the mortality result is listed as “at least 50%”.

As to `COCC#CCn1ncc(-c2ccc(C(F)(F)F)cc2)n1` [Compound 299], the mortality at 250 ppm in data set [4] was at least 50%.

With `CCC#CCn1ncc(-c2ccc(F)nc2)n1` [Compound 159, 2-Fluoro-5-[2-(2-pentyn-1-yl)-2H-1,2,3-triazol-4-yl]pyridine], the mortality at 50 ppm in data set [1] and in data set [3] was at least 80% throughout. Further, in data set [5], the mortality at 250 ppm was at least 80%.

Regarding `CCC#CCn1ncc(-c2ccc(Cl)nc2)n1` [Compound 157], the mortality at 50 ppm in data set [1] and in data set [3] was at least 80% throughout. Also, the mortality at 250 ppm is at least 80% in data set [2] and at least 50% in data set [4].

The molecule `CCC#CCn1nnc(-c2ccc(Cl)c(F)c2)n1` [Compound 308, 5-(4-Chloro-3-fluorophenyl)-2-(2-pentyn-1-yl)-2H-tetrazole] yielded a mortality at 250 ppm in data set [1] of at least 80%. The results for the mortality at 50 ppm in data set [2] and in data set [4] were at least 80% and at least 50%, respectively. In data set [3] (sprayed at 10 ppm), this molecule displayed a mortality at 10 ppm of at least 80%.

In the case of `CCC#CCn1nnc(-c2ccc(OC(F)F)cc2)n1` [Compound 311, 5-[4-(Difluoromethoxy)phenyl]-2-(2-pentyn-1-yl)-2H-tetrazole], the mortality at 50 ppm in data set [1] is at least 80%; in data set [3], at least 80%; in data set [4], at least 50%.

For the molecule `CCC#CCn1cc(-c2ccc(F)nc2)nn1` [Compound 158], the mortality at 50 ppm in data set [5] (sprayed at 50 ppm) is at least 80%. This molecule showed a mortality at 250 ppm in data set [3] of at least 80%.

For the molecule `CCC#CCn1nnc(-n2cc(Cl)cn2)n1` [Compound 306], the mortality at 250 ppm in data set [1] is at least 80%; in data set [2] it was at least 80%; in data set [4], at least 50%. The molecule further registered a mortality at 50 ppm in data set [3] of at least 80%.

As for `CCC#CCn1nnc(-c2ccc3occc3c2)n1` [Compound 193, 5-(5-Benzofuranyl)-2-(2-pentyn-1-yl)-2H-tetrazole], the mortality at 50 ppm in data set [1] and in data set [3] was at least 80% each time. In addition, the values for the mortality at 250 ppm in data set [2] and in data set [4] were at least 80% and at least 50%, respectively.

On to `CCC#CCn1nnc(-c2cc(OC)cc(C(F)(F)F)c2)n1` [Compound 286, 5-[3-Methoxy-5-(trifluoromethyl)phenyl]-2-(2-pentyn-1-yl)-2H-tetrazole], for which the mortality at 250 ppm in data set [1] was at least 80%. The mortality at 50 ppm in data set [3] was at least 80%; in data set [4], at least 50%.

In data set [1], `CCC#CCn1nnc(-c2cc(F)c(F)c(F)c2)n1` [Compound 313, 2-(2-Pentyn-1-yl)-5-(3,4,5-trifluorophenyl)-2H-tetrazole] returned a mortality at 10 ppm of at least 80%. Further, the mortality at 50 ppm in data set [2] is at least 80%. In data set [3], this molecule returned a mortality at 2 ppm of at least 80%. In data set [4], this molecule showed a mortality at 250 ppm of at least 50%.

In data set [1], `CCC#CCn1nnc(-c2ccnc(C(F)(F)F)c2)n1` [Compound 188] yielded a mortality at 10 ppm of at least 80%. In data set [2], this molecule came in with a mortality at 250 ppm of at least 80%. In addition, in data set [3], the mortality at 50 ppm was at least 80% and the mortality at 250 ppm was at least 80%.

Turning to `COCC#CCn1nnc(-c2ccc(C(F)(F)F)cc2)n1` [Compound 300], the mortality at 250 ppm in data set [3] was at least 80%; in data set [4] it was at least 50%.

As to `CCC#CCn1ncc(-c2ccc(F)cn2)n1` [Compound 150], the mortality at 50 ppm in data set [1] and in data set [3] was at least 80% throughout. Also, the mortality at 250 ppm in data set [2] is at least 80%.

In data set [1], `CCC#CCn1nnc(-c2ccc(F)cc2)n1` [Compound 41, 5-(4-fluorophenyl)-2-(2-pentyn-1-yl)-2H-tetrazole] returned a mortality at 10 ppm of at least 80%. Besides, the mortality at 250 ppm was at least 80% in data set [2] and at least 50% in data set [4]. For the same molecule, the mortality at 50 ppm in data set [3] is at least 80%.

Regarding `CCC#CCn1nnc(-c2cc(F)cc(F)c2)n1` [Compound 65, 5-(3,5-difluorophenyl)-2-(2-pentyn-1-yl)-2H-tetrazole], the mortality at 50 ppm in data set [1] and in data set [2] was at least 80% each time. In addition, in data set [3], the mortality at 2 ppm is at least 80%. Moreover, the mortality at 250 ppm in data set [4] was at least 50%.

Values taken from patent publication US20250002476A1, “AZOLE COMPOUNDS FOR CONTROLLING INVERTEBRATE PESTS” (FMC Corporation, priority 2021, published 2025).
